Measured values: patent publication US5677331A, “Antimalarial compositions” (priority 1990, dated 1997)

Assays:
[1] = system: chloroquine-resistant strains of Plasmodium falciparum; conditions: in vivo; cited from earlier work
[2] = toxicity and tolerability of benflumetol (general statement)
Description: The dose of the active component benflumetol (I) as contained in the pharmaceutical composition may vary within wide limits and depends on the condition of the patient and the time period elapsed after the outbreak of the disease.

P. Berghei K173 N-strain = test: blood schizontocidal action, 4-day test according to Peters; type: in vivo, P. Berghei in mice; conditions: component alone, oral, mice, mean of three experiments
Method: The synergism between the components benflumetol and artemether is determined according to the method of Peters: Am. Trop. Med. Parasitol Vol. 62, pg. 488-492 (1968).
Blood schizintocidal action of artemether (A) and benflumetol (B) admimistered orally in varying proportions to mice infected with P. Berghei K173 N-strain in "4-day test" according to Peters (Mean values of three experiments)

protozoa = test: rate of killing protozoa in vivo in mice; conditions: 20× ED90 intragastrically
Method: The rate of killing protozoa was determined in-vivo. When the protozoa concentration in the blood of mice increased to high density, a multiple dose equivalent, i.e. 20× ED90 was given intragastrically. The rate of decrease of protozoae in blood was observed uninterruptedly after administration.

[3] = system: pernicious malaria protozoae; test: clinical therapeutic effect of individual components compared to combination; type: in vivo, patients (human); conditions: oral, 3 days and 4 doses; for time for disappearance of protozoae: average; for rate of decrease in protozoae at 24 hours: 20 patients per group
Description: Determination of therapeutic effect of individual components as compared to synergistic combination: Two groups of patients were selected for oral administration and the 3 days and 4 doses treatment scheme. There were 20 patients with pernicious malaria in each group. The therapeutic effect of the combination and artemether and benflumetol singly were compared separately. The doses of both drugs in individual administration were about the same as in the complex prescription. The parameters determined were: 1) the rate for decrease of protozoa at 24 h post administrationem; 2) average time for disappearance of protozoae; 3) average time for fever subsidence; and 4) cure rate at the 28th day.

Row | Structure (SMILES) | activity against chloroquine-resistant strains of Plasmodium falciparum in man [1] | tolerability [2] | toxicity [2] | Effective dose of first component ED50 (P. Berghei K173 N-strain) [mg/kg/day] | Effective dose of first component ED90 (P. Berghei K173 N-strain) [mg/kg/day] | timespan required for 90% decrease of the protozoae (protozoa) [h] | time for disappearance of protozoae [3] [h] | 28-day cure rate [3] [%] | average time for fever subsidence [3] [h] | rate of decrease in protozoae at 24 hours [3] [%] | killing of protozoae (protozoa; before their number increased again)
1 | C[C@@H]1CC[C@H]2[C@@H](C)C(=O)O[C@@H]3O[C@@]4(C)CC[C@@H]1[C@]32OO4 [Artemisinine] | active against chloroquine-resistant strains of Plasmodium falciparum in man | – | – | – | – | – | – | – | – | – | –
2 | CCCCN(CCCC)CC(O)c1cc(Cl)cc2c1-c1ccc(Cl)cc1C2=Cc1ccc(Cl)cc1 (centres unmarked) [benflumetol] | – | high tolerability | low toxicity | 1.30 | 2.70 | 64.3 | 68.4 | 65 | 40 | 74.5 | –
3 | CO[C@H]1O[C@@H]2O[C@@]3(C)CC[C@H]4[C@H](C)CC[C@@H]([C@H]1C)[C@@]24OO3 [artemether] | – | – | – | 2.00 | 5.30 | – | 38.7 | 45 | 19.7 | 95.1 | could not kill protozoae by more than 90% before their number increased again
